Laboratory results from DBAASP.
In brackets after ≈: the same amount, converted by molar mass.

How the values were obtained:
Assay in all cases: ≥ marks a high value that may be exact or a test limit, other limits are often not marked, values filed in µg/mL are converted to µM
[1] = tested on: Streptococcus gordonii Challis DL1
[2] = tested on: Streptococcus sobrinus ATCC 33478
[3] = tested on: Streptococcus sanguinis NY101
[4] = tested on: Pseudomonas aeruginosa PAK
[5] = tested on: Escherichia coli W3110
[6] = tested on: Staphylococcus aureus
[7] = tested on: Streptococcus mutans UA159
[8] = tested on: Enterococcus faecalis
[9] = tested on: Streptococcus mitis ATCC 903
[10] = tested on: Bacillus subtilis var. niger ATCC 9372
[11] = tested on: Escherichia coli K91BK
[12] = tested on: Bacillus anthracis Sterne 34F2
[13] = tested on: Mannheimia haemolytica Serovar 6
[14] = tested on: Salmonella enterica subsp. arizonae
[15] = tested on: Aspergillus fumigatus
[16] = tested on: Klebsiella pneumoniae
[17] = tested on: Mannheimia haemolytica Serovar 2
[18] = tested on: Pasteurella multocida
[19] = tested on: Bibersteinia trehalosi
[20] = tested on: Corynebacterium pseudotuberculosis ATCC 19410
[21] = tested on: Pseudomonas aeruginosa PAO1
[22] = tested on: Mannheimia haemolytica Serovar 1
[23] = tested on: Enterobacter cloacae BCRC 10401
[24] = tested on: Lactococcus garvieae
[25] = tested on: Staphylococcus aureus BCRC 10780
[26] = tested on: Staphylococcus xylosus BCRC 12930
[27] = tested on: Pseudomonas aeruginosa BCRC 10944
[28] = tested on: Klebsiella oxytoca BCRC 13985
[29] = tested on: Vibrio alginolyticus BCRC 12829
[30] = tested on: Klebsiella aerogenes BCRC 10370
[31] = tested on: Escherichia coli BCRC 10675
[32] = tested on: Streptococcus iniae
[33] = tested on: Vibrio anguillarum serotype O1
[34] = tested on: Vibrio alginolyticus
[35] = tested on: Streptococcus equinus BCRC 14729
[36] = tested on: Vibrio parahaemolyticus BCRC 10806
[37] = tested on: Vibrio harveyi
[38] = tested on: Listeria monocytogenes BCRC 14845
[39] = tested on: Yersinia enterocolitica BCRC 13999
[40] = tested on: Staphylococcus aureus BCRC 10781
[41] = tested on: Vibrio parahaemolyticus

Q: For `CC[C@H](C)[C@H](NC(=O)[C@H](Cc1ccccc1)NC(=O)[C@H](Cc1cnc[nH]1)NC(=O)[C@H](CCCCN)NC(=O)[C@@H](NC(=O)[C@@H](N)Cc1ccccc1)[C@@H](C)CC)C(=O)N[C@@H](Cc1cnc[nH]1)C(=O)N[C@@H](CCCN=C(N)N)C(=O)N[C@@H](Cc1ccccc1)C(N)=O` [FIKHFIHRF], which MIC [1] is on record?
A: Its MIC is at least 402 µM.

Q: What about the MIC [2] of the same compound?
A: Its MIC is at least 100 µM.

Q: And the MIC [3]?
A: Its MIC is at least 100 µM.

Q: And the MIC [4]?
A: Its MIC is at least 402 µM.

Q: And the MIC [5]?
A: Its MIC is at least 402 µM.

Q: What about the MIC [6] of the same compound?
A: Its MIC is over 402 µM.

Q: What about the MIC [7] of the same compound?
A: The MIC was at least 100 µM.

Q: And the MIC [8]?
A: Its MIC is at least 402 µM.

Q: And the MIC [9]?
A: Its MIC is at least 402 µM.

Q: What does the source list for `CC(=O)N[C@@H](CCCCN)C(=O)N[C@@H](CCCCN)C(=O)N[C@@H](Cc1c[nH]c2ccccc12)C(=O)N[C@@H](CCCCN)C(=O)N[C@@H](CCCCN)C(=O)N[C@@H](Cc1c[nH]c2ccccc12)C(=O)N[C@@H](CCCCN)C(=O)N[C@@H](CCCCN)C(=O)N[C@@H](Cc1c[nH]c2ccccc12)C(=O)N[C@@H](CCCCN)C(=O)N[C@@H](CCCCN)C(N)=O` [KKWKKWKKWKK]?
A: MIC [10]: ≥ 50 µM; MIC [11]: ≥ 100 µM; MIC [12]: ≥ 100 µM

Q: Which results are given for `CC[C@H](C)[C@H](NC(=O)[C@@H](NC(=O)[C@H](Cc1cnc[nH]1)NC(=O)[C@@H](NC(=O)[C@@H](NC(=O)[C@H](CCCCN)NC(=O)[C@H](CCCN=C(N)N)NC(=O)[C@@H](NC(=O)[C@@H](NC(=O)[C@@H](N)CCCN=C(N)N)[C@@H](C)CC)[C@@H](C)CC)[C@@H](C)CC)[C@@H](C)CC)[C@@H](C)CC)C(N)=O` [RIIRKIIHII]?
A: MIC [13]: 15.7 µM (≈ 20 µg/mL); MIC [14]: 15.7 µM (≈ 20 µg/mL); MIC [15]: 31.4 µM (≈ 40 µg/mL); MIC [16]: 9.18 µM (≈ 11.7 µg/mL); MIC [17]: 10.4 µM (≈ 13.3 µg/mL); MIC [18]: 15.7 µM (≈ 20 µg/mL); MIC [19]: 15.7 µM (≈ 20 µg/mL); MIC [6]: > 15.7 µM; MIC [20]: 15.7 µM (≈ 20 µg/mL); MIC [21]: 7.85 µM (≈ 9.99 µg/mL); MIC [22]: 15.7 µM (≈ 20 µg/mL)

Q: Which MIC [23] does the source give for `CC[C@H](C)[C@H](NC(=O)[C@H](CCCCN)NC(=O)[C@H](CCCCN)NC(=O)[C@H](CC(C)C)NC(=O)[C@H](Cc1ccc(O)cc1)NC(=O)[C@H](CC(N)=O)NC(=O)[C@H](Cc1ccc(O)cc1)NC(=O)[C@@H](NC(=O)[C@@H](NC(=O)[C@H](CCCCN)NC(=O)[C@H](C)NC(=O)[C@H](Cc1ccc(O)cc1)NC(=O)[C@H](CCCCN)NC(=O)[C@H](C)NC(=O)CN)[C@@H](C)CC)[C@@H](C)CC)C(=O)N[C@@H](C)C(=O)N[C@@H](CC(N)=O)C(=O)N[C@@H](C)C(=O)N[C@@H](CC(C)C)C(=O)N[C@@H](Cc1c[nH]c2ccccc12)C(=O)O` [GAKYAKIIYNYLKKIANALW] here?
A: Its MIC is 6.83 µM (≈ 16 µg/mL).

Q: What about the MIC [24] of the same compound?
A: The MIC was at least 54.7 µM.

Q: What about the MIC [25] of the same compound?
A: The MIC was 3.42 µM (≈ 8 µg/mL).

Q: What about the MIC [26] of the same compound?
A: The MIC was 6.83 µM (≈ 16 µg/mL).

Q: What about the MIC [27] of the same compound?
A: The MIC was at least 54.7 µM.

Q: And the MIC [28]?
A: Its MIC is 13.7 µM (≈ 32 µg/mL).

Q: What about the MIC [29] of the same compound?
A: Its MIC is 6.83 µM (≈ 16 µg/mL).

Q: And the MIC [30]?
A: Its MIC is 6.83 µM (≈ 16 µg/mL).

Q: What about the MIC [31] of the same compound?
A: The MIC was 27.3 µM (≈ 64 µg/mL).

Q: What about the MIC [32] of the same compound?
A: Its MIC is 27.3 µM (≈ 64 µg/mL).

Q: And the MIC [33]?
A: Its MIC is 27.3 µM (≈ 64 µg/mL).

Q: And the MIC [34]?
A: Its MIC is 6.83 µM (≈ 16 µg/mL).

Q: What about the MIC [35] of the same compound?
A: The MIC was 13.7 µM (≈ 32 µg/mL).

Q: And the MIC [36]?
A: The MIC was 6.83 µM (≈ 16 µg/mL).

Q: And the MIC [37]?
A: The MIC was 1.71 µM (≈ 4 µg/mL).

Q: What about the MIC [38] of the same compound?
A: The MIC was 13.7 µM (≈ 32 µg/mL).

Q: What about the MIC [39] of the same compound?
A: The MIC was at least 54.7 µM.

Q: And the MIC [40]?
A: The MIC was 6.83 µM (≈ 16 µg/mL).

Q: What about the MIC [41] of the same compound?
A: Its MIC is 6.83 µM (≈ 16 µg/mL).

Q: What does the source list for `CC[C@H](C)[C@H](NC(=O)[C@H](Cc1cnc[nH]1)NC(=O)[C@@H](NC(=O)[C@@H](NC(=O)[C@H](CCCCN)NC(=O)[C@H](CCCN=C(N)N)NC(=O)[C@@H](NC(=O)[C@@H](NC(=O)[C@@H](N)CCCN=C(N)N)[C@@H](C)CC)[C@@H](C)CC)[C@@H](C)CC)[C@@H](C)CC)C(=O)N[C@H](C(=O)N[C@@H](CCCCN)C(N)=O)[C@@H](C)CC` [RIIRKIIHIIK]?
A: MIC [13]: 7.13 µM (≈ 9.99 µg/mL); MIC [14]: 14.3 µM (≈ 20 µg/mL); MIC [15]: 28.5 µM (≈ 40 µg/mL); MIC [16]: 9.48 µM (≈ 13.3 µg/mL); MIC [17]: 7.13 µM (≈ 9.99 µg/mL); MIC [18]: 14.3 µM (≈ 20 µg/mL); MIC [19]: 14.3 µM (≈ 20 µg/mL); MIC [6]: > 14.3 µM; MIC [20]: 14.3 µM (≈ 20 µg/mL); MIC [21]: 3.56 µM (≈ 5 µg/mL); MIC [22]: 14.3 µM (≈ 20 µg/mL)

Q: Which MIC [1] does the source give for `NC(=O)CC[C@H](NC(=O)[C@H](Cc1c[nH]c2ccccc12)NC(=O)[C@H](Cc1c[nH]c2ccccc12)NC(=O)[C@H](CC(N)=O)NC(=O)[C@H](Cc1ccc(O)cc1)NC(=O)[C@H](Cc1c[nH]c2ccccc12)NC(=O)[C@@H](N)Cc1c[nH]c2ccccc12)C(=O)N[C@@H](CC(=O)O)C(=O)N[C@@H](Cc1c[nH]c2ccccc12)C(N)=O` [WWYNWWQDW] here?
A: The MIC was at least 340 µM.

Q: What about the MIC [2] of the same compound?
A: Its MIC is at least 340 µM.

Q: And the MIC [3]?
A: Its MIC is at least 340 µM.

Q: And the MIC [4]?
A: Its MIC is at least 340 µM.

Q: And the MIC [5]?
A: Its MIC is at least 340 µM.

Q: And the MIC [6]?
A: The MIC was over 340 µM.

Q: What about the MIC [7] of the same compound?
A: The MIC was at least 340 µM.

Q: And the MIC [8]?
A: The MIC was at least 340 µM.

Q: And the MIC [9]?
A: The MIC was at least 340 µM.

Q: For `CC[C@H](C)[C@H](NC(=O)[C@H](CC(N)=O)NC(=O)[C@H](CCCCN)NC(C)=O)C(=O)N[C@@H](CCCN=C(N)N)C(=O)N[C@@H](CCCN=C(N)N)C(=O)N[C@H](C(=O)N[C@H](C(=O)N[C@@H](CCCN=C(N)N)C(=O)N[C@@H](CCCCN)C(=O)N[C@H](C(=O)N[C@H](C(=O)N[C@@H](Cc1cnc[nH]1)C(=O)N[C@H](C(=O)N[C@H](C(=O)N[C@@H](CCCCN)C(=O)N[C@@H](CCCCN)C(=O)N[C@@H](Cc1ccc(O)cc1)C(=O)NCC(N)=O)[C@@H](C)CC)[C@@H](C)CC)[C@@H](C)CC)[C@@H](C)CC)[C@@H](C)CC)[C@@H](C)CC` [KNIRRIIRKIIHIIKKYG], which MIC [10] is on record?
A: Its MIC is 0.93 µM (≈ 2.14 µg/mL).

Q: What about the MIC [11] of the same compound?
A: Its MIC is at least 100 µM.

Q: And the MIC [12]?
A: Its MIC is 6.25 µM (≈ 14.4 µg/mL).

Q: What does the source list for `CC[C@H](C)[C@H](NC(=O)[C@H](Cc1ccccc1)NC(=O)[C@H](CCCCN)NC(=O)[C@H](CC(N)=O)NC(=O)[C@@H](NC(=O)[C@H](Cc1ccc(O)cc1)NC(=O)[C@@H](NC(=O)[C@H](Cc1ccc(O)cc1)NC(=O)[C@H](Cc1ccccc1)NC(=O)[C@H](CCCCN)NC(=O)[C@H](CCCCN)NC(=O)[C@H](C)NC(=O)[C@H](CC(C)C)NC(=O)[C@H](CC(N)=O)NC(=O)[C@H](C)NC(=O)CN)[C@@H](C)O)[C@@H](C)CC)C(=O)N[C@@H](CC(N)=O)C(=O)N[C@@H](Cc1ccc(O)cc1)C(=O)N[C@@H](C)C(=O)N[C@@H](Cc1c[nH]c2ccccc12)C(=O)O` [GANLAKKFYTYINKFINYAW]?
A: MIC [23]: 26.4 µM (≈ 64 µg/mL); MIC [24]: ≥ 106 µM; MIC [25]: ≥ 52.8 µM; MIC [26]: 26.4 µM (≈ 64 µg/mL); MIC [27]: ≥ 52.8 µM; MIC [28]: ≥ 52.8 µM; MIC [29]: ≥ 52.8 µM; MIC [30]: 13.2 µM (≈ 32 µg/mL); MIC [31]: 26.4 µM (≈ 64 µg/mL); MIC [32]: ≥ 106 µM; MIC [33]: 13.2 µM (≈ 32 µg/mL); MIC [34]: 13.2 µM (≈ 32 µg/mL); MIC [35]: ≥ 106 µM; MIC [36]: ≥ 52.8 µM; MIC [37]: 3.3 µM (≈ 8 µg/mL); MIC [38]: ≥ 52.8 µM; MIC [39]: ≥ 52.8 µM; MIC [40]: ≥ 52.8 µM; MIC [41]: 6.6 µM (≈ 16 µg/mL)
